Test results: patent publication US8604042B2, “Bi-aryl meta-pyrimidine inhibitors of kinases” (TargeGen, Inc., priority 2005, dated 2013)
Counter-ions that a name gives are not always drawn. Like-named read-outs stand apart in the source and are kept apart here. Values belong to the molecule of their own block, whether it stands above or below them.

Tests used:
HEL cells = experiment: XTT cell proliferation assay, HEL cells; assay type: cell-based; details: Homo sapiens, XTT assay, Table 19, read-out: Cellular IC50 HEL
[1] = tested on: EOL-1, a chronic eosinophilic leukemia (CEL) derived line (FIP1L1-PDFRA-positive); experiment: XTT cell proliferation assay, EOL-1; assay type: cell-based; details: for IC50: Homo sapiens, EOL1, XTT assay, read-out: Cellular IC50 EOL-1
[2] = tested on: HMC-1, a mast cell leukemia line (KITD816V-positive); experiment: XTT cell proliferation assay, HMC-1; assay type: cell-based; details: for IC50: Homo sapiens
[3] = target: T1, Ba/F3 T674I (FIP1L1-PDFRA-T674I) (Homo sapiens, UniProt P16234, T674I, cells depend on it); experiment: XTT cell proliferation assay, Ba/F3 T674I; assay type: cell-based; details: for GI50: XTT assay, read-out: Cellular IC50 Ba/F3 T674I
T1 construct: fused on or other part: Q6UN15 (Pre-mRNA 3'-end-processing factor FIP1)
T1 sequence (P16234 whole entry T674I, the tested form may be a part): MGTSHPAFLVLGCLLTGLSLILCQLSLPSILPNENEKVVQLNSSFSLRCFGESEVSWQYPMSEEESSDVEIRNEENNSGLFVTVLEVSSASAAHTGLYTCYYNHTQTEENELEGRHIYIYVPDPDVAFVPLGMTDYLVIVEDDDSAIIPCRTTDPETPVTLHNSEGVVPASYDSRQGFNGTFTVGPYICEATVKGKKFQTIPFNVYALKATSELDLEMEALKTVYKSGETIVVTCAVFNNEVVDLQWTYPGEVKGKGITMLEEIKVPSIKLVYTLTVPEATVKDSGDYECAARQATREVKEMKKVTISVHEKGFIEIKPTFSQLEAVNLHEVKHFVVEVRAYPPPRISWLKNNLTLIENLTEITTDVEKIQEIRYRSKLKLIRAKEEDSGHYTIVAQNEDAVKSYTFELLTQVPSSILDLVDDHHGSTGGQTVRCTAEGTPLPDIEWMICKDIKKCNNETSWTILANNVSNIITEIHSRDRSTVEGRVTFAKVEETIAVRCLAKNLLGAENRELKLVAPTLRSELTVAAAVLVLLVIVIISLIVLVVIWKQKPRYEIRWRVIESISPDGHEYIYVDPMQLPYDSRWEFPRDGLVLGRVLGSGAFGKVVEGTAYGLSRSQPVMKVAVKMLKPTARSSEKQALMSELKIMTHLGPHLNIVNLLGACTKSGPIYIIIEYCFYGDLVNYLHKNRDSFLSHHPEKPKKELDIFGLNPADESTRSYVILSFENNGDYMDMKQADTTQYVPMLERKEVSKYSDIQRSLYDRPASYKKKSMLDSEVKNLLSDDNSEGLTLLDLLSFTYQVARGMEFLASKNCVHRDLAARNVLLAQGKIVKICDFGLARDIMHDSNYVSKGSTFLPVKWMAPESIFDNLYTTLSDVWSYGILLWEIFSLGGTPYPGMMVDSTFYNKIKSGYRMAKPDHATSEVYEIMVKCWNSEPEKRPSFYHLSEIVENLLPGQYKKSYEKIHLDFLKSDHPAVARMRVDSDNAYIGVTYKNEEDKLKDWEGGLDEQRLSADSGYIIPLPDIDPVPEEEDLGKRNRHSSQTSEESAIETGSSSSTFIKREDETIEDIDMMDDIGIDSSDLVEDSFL

[4] = Ocular exposure after eye drop administration; assay type: in vivo; details: mouse, bilateral topical instillation of 0.1% formulation QDX1
Description: Exposure data of compounds at 0.1% via eye drop administration:
On topical dosing of compounds formulated as 0.1% doses in 0.2% tyloxapol/1% HPMC/4% Mannitol, exposure levels in found in back of the eye tissues of the mouse are shown at two different time points, namely at 2 h and at 7 h.

[5] = Ocular exposure after eye drop administration; assay type: in vivo; details: mouse
recombinant JAK2 = target: T2, recombinant JAK2 (Homo sapiens, UniProt O60674); experiment: IC50 value determinations for Jak2 kinase, luminescence-based kinase assay (Kinase-Glo); assay type: biochemical
T2 construct: purchased Upstate Cell Signaling Solutions
T2 sequence (O60674 808-1132 limits assumed): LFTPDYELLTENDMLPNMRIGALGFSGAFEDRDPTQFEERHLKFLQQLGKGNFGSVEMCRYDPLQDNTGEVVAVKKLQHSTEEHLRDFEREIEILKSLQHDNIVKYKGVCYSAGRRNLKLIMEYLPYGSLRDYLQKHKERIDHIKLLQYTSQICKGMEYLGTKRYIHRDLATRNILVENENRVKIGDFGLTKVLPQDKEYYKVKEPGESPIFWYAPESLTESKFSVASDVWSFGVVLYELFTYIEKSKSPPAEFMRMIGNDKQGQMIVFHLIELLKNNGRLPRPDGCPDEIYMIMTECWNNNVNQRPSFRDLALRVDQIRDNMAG

[6] = HMC1, XTT assay, read-out: Cellular IC50 HMC-1
[7] = cornea, read-out: Concentration (nM) Cornea
[8] = retina, read-out: Concentration (nM) retina
[9] = sclera/choroid, read-out: Concentration (nM) Sclera/choroid

Compound: Cc1cnc(Nc2ccc(OCCN3CCCC3)cc2)nc1Nc1cccc(S(=O)(=O)NC(C)(C)C)c1 [LVII]
IC50 (HEL cells): 300 nM | IC50 [1]: < 0.001 nM | IC50 ([2]; HMC1, read-out: Cellular IC50 HMC-1 (nM)): 355 nM

concentrations inhibiting growth of Ba/F3 cells harboring FIP1L1-PDFGRA-T674I [3]: nanomolar concentrations | GI50 [3]: 16 nM | IC50 [1]: 0.002 nM | IC50 [2, 6]: 4000 nM
Compound: CNC(=O)c1cc(Oc2ccc(NC(=O)Nc3ccc(Cl)c(C(F)(F)F)c3)cc2)ccn1 [Sorafenib]
concentrations inhibiting EOL-1 growth [1]: picomolar concentrations | sensitivity of HMC-1 growth [2]: only a limited effect

GI50 [3]: 30900 nM | IC50 [1]: < 0.001 nM | IC50 [2, 6]: 1300 nM
Compound: Cc1nc(Nc2ncc(C(=O)Nc3c(C)cccc3Cl)s2)cc(N2CCN(CCO)CC2)n1 [Dasatinib, dasatinib]

concentration at 2 h [4, 7]: 69900 nM | concentration at 7 h [4, 7]: 45400 nM | concentration at 2 h [4, 8]: 267 nM | concentration at 7 h [4, 8]: 592 nM | concentration at 2 h [4, 9]: 2340 nM | concentration at 7 h [4, 9]: 2250 nM
Compound: COc1cc(Nc2nc(Nc3ccc(OC4CCNCC4)cc3)ncc2C)ccc1Cl [Compound LXXXII, N^4-(4-Chloro-3-methoxy-phenyl)-5-methyl-N^2-[4-(piperidin-4-yloxy)-phenyl]-pyrimidine-2,4-diamine]

Compound: Cc1ccc(NC(=O)c2ccc(CN3CCN(C)CC3)cc2)cc1Nc1nccc(-c2cccnc2)n1 [Imatinib, imatinib mesylate]
concentrations inhibiting EOL-1 growth [1]: picomolar concentrations

concentration at 6 h ([5]; cornea, bilateral topical instillation of 0.1% formulation QDX1, read-out: Concentration (nM) Cornea): 3780 nM | concentration at 6 h ([5]; retina, bilateral topical instillation of 0.1% formulation QDX1, read-out: Concentration (nM) retina): 351 nM | concentration at 6 h ([5]; sclera/choroid, bilateral topical instillation of 0.1% formulation QDX1, read-out: Concentration (nM) Sclera/choroid): 2970 nM | concentration at 2 h [4, 7]: 8840 nM | concentration at 2 h [4, 8]: 495 nM | concentration at 2 h [4, 9]: 6040 nM
Compound: COc1cc(Nc2nc(Nc3ccc(OCCN4CCCC4)cc3)ncc2C)ccc1Cl [XVII]

concentration at 2 h [4, 7]: 45000 nM | concentration at 7 h [4, 7]: 21000 nM | concentration at 2 h [4, 8]: 2120 nM | concentration at 7 h [4, 8]: 2150 nM | concentration at 2 h [4, 9]: 6090 nM | concentration at 7 h [4, 9]: 7350 nM
Compound: Cc1cnc(Nc2ccc(N3CCN(C)CC3)cc2)nc1Nc1ccc(Cl)c2[nH]ccc12 [Compound LXXIV, N^4-(7-Chloro-1H-indol-4-yl)-5-methyl-N^2-(4-(4-methylpiperazin-1-yl)phenyl)pyrimidine-2,4-diamine]

concentration at 2 h [4, 7]: 7870 nM | concentration at 7 h [4, 7]: 18600 nM | concentration at 2 h [4, 8]: 816 nM | concentration at 7 h [4, 8]: 11200 nM | concentration at 2 h [4, 9]: 7250 nM | concentration at 7 h [4, 9]: 34800 nM
Compound: Cc1cnc(Nc2ccc(OCCN3CCCC3)cc2)nc1Nc1cccc2c1OCO2 [Compound XXXVI, N^4-Benzo[1,3]dioxol-4-yl-5-methyl-N^2-[4-(2-pyrrolidin-1-yl-ethoxy)-phenyl]-pyrimidine-2,4-diamine]

concentration at 2 h [4, 7]: 103000 nM | concentration at 7 h [4, 7]: 26600 nM | concentration at 2 h [4, 8]: 406 nM | concentration at 7 h [4, 8]: 321 nM | concentration at 2 h [4, 9]: 4840 nM | concentration at 7 h [4, 9]: 3180 nM
Compound: COc1cc(Nc2nc(Nc3ccc(N4CCNCC4)cc3)ncc2C)ccc1Cl [Compound XLIV, N^4-(4-Chloro-3-methoxy-phenyl)-5-methyl-N^2-(4-piperazin-1-yl-phenyl)-pyrimidine-2,4-diamine]

concentrations inhibiting growth of Ba/F3 cells harboring FIP1L1-PDFGRA-T674I [3]: nanomolar concentrations
Compound: Cc1cn(-c2cc(NC(=O)c3ccc(C)c(Nc4nccc(-c5cccnc5)n4)c3)cc(C(F)(F)F)c2)cn1 [nilotinib]

IC50 (recombinant JAK2; Table 6): 53 nM | IC50 (recombinant JAK2; Table 7, SAR for the P3 region): 53 nM
Compound: COc1cccc(Nc2nc(Nc3ccc(OCCN4CCCC4)cc3)ncc2C)c1 [Compound 5]

IC50 (recombinant JAK2; Table 1): 4.27 nM
Compound: Cc1cnc(Nc2ccc(OC3CCNCC3)cc2)nc1Nc1cccc2[nH]ccc12 [N4-(1H-indol-4-yl)-5-methyl-N2-(4-(piperidin-4-yloxy)phenyl)pyrimidine-2,4-diamine trifluoroacetic acid salt]

IC50 (recombinant JAK2; Table 1): 10700 nM
Compound: COc1ccc(Nc2ccnc(Nc3ccc(S(=O)(=O)NCCN4CCCC4)cc3)n2)cc1 [4-[4-(4-Methoxy-phenylamino)-pyrimidin-2-ylamino]-N-(2-pyrrolidin-1-yl-ethyl)-benzenesulfonamide trifluoroacetate]

IC50 (recombinant JAK2; Table 1): 126 nM
Compound: Cc1cnc(Nc2ccc(N3CCN(C)CC3)cc2)nc1Nc1cccc(NC(=O)Nc2cccc(C(F)(F)F)c2)c1 [1-(3-{5-Methyl-2-[4-(4-methyl-piperazin-1-yl)-phenylamino]-pyrimidin-4-ylamino}-phenyl)-3-(3-trifluoromethyl-phenyl)-urea]
